Measured values reported in ChEMBL document CHEMBL1201862, “PubChem BioAssay data set” (2004).
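Following 48 hours of exposure in 96-well plates, responses at five concentrations were used to interpolate endpoints linearly. GI50 = concentration required for 50% inhibition of growth.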 Activity calls are given as the source filed them. No stated cut-off is given here; in the data, active = GI50 up to about 1.1 µM and inactive = higher.

Columns and labels:
Test in all cases: growth of human tumour cells (NCI), 48 h
[1] = test system: 786-0
[2] = test system: A549
[3] = test system: ACHN
[4] = test system: CCRF-CEM
[5] = test system: COLO 205
[6] = test system: DMS-273
[7] = test system: HCC 2998
[8] = test system: IGROV-1
[9] = test system: K562
[10] = test system: KM12
[11] = test system: MOLT-4
[12] = test system: Malme-3M
[13] = test system: NCI-H23
[14] = test system: SK-MEL-2
[15] = test system: SK-MEL-5
[16] = test system: SNB-75

| SMILES | GI50 [1] | GI50 [2] | GI50 [3] | GI50 [4] | GI50 [5] | GI50 [6] | GI50 [7] | GI50 [8] | GI50 [9] | GI50 [10] | GI50 [11] | GI50 [12] | GI50 [13] | GI50 [14] | GI50 [15] | GI50 [16] |
| --- | --- | --- | --- | --- | --- | --- | --- | --- | --- | --- | --- | --- | --- | --- | --- | --- |
| CCc1oc2ccc(OC)c3c2c1C=CC=C3 | > 100 µM (inactive) | > 100 µM (inactive) | > 100 µM (inactive) | > 100 µM (inactive) | > 100 µM (inactive) | > 100 µM (inactive) | > 100 µM (inactive) | > 100 µM (inactive) | > 100 µM (inactive) | > 100 µM (inactive) | > 100 µM (inactive) | > 100 µM (inactive) | > 100 µM (inactive) | > 100 µM (inactive) | > 100 µM (inactive) | 60.3 µM (inactive) |
| Cc1ccc(S(=O)(=O)N/N=C\c2c3ccccc3[n+]([O-])c3ccccc23)cc1 | 2.01 µM (inactive) | 5.12 µM (inactive) | 2.7 µM (inactive) | 0.476 µM (active) | 2.72 µM (inactive) | 3.41 µM (inactive) | 8.57 µM (inactive) | 9.25 µM (inactive) | 0.36 µM (active) | 9.55 µM (inactive) | 0.612 µM (active) | 12.2 µM (inactive) | 4.48 µM (inactive) | 4.41 µM (inactive) | 5.21 µM (inactive) | 3.44 µM (inactive) |
| Cc1nc2c(n1Cc1ccc(F)cc1)C(=O)c1ccccc1C2=O | 13.1 µM (inactive) | 36.5 µM (inactive) | 28.9 µM (inactive) | 10.5 µM (inactive) | 18.9 µM (inactive) | 6.43 µM (inactive) | 87.3 µM (inactive) | 25.8 µM (inactive) | 5.61 µM (inactive) | 42.2 µM (inactive) | 5.4 µM (inactive) | 8.89 µM (inactive) | 13.2 µM (inactive) | 34.1 µM (inactive) | 10.3 µM (inactive) | 36.6 µM (inactive) |
